{"source": "paper PMC4879640", "about": "(Frontiers in Microbiology, 2016)", "tested_on": "T1, H6-PnpA (PNP 4-monooxygenase)", "T1 construct": "N-terminal His6 tag, pET-28a (NdeI-XhoI), E. coli Rosetta(DE3)pLysS; gene pnpA of the pnpABA1CDEF cluster (not pnpA1)", "type": "biochemical, Burkholderia sp. SJ98", "details": "read-out: apparent Km"}
{"smiles": "Cc1cc(O)ccc1[N+](=O)[O-]", "note": "[3-methyl-4-nitrophenol]", "values": [{"measurement": "Km", "result": "20.3 ± 2.54", "unit": "µM"}]}
